Reference: patent publication US8466172B2, “Stabilization of hypoxia inducible factor (HIF) alpha” (FibroGen, Inc., priority 2001, dated 2013)

Test system: HIF-regulated genes
Assay: Expression of HIF-regulated genes in vivo, Murine genome U74AV2 array
Parameters: species or system mouse
Settings: 100 mg/kg oral gavage
Protocol: Twenty four Swiss Webster male mice (30-32 g) were obtained from Simonsen, Inc., and treated by oral gavage with a 4 ml/kg volume of either 0.5% CMC (Sigma-Aldrich) (0 mg/kg/day) or […] Compound A (25 mg/ml in 0.5% CMC) (100 mg/kg). At 4, 8, 16, 24, 48, or 72 hours after the final dose, animals were anesthetized with isoflurane and a blood sample was collected from the abdominal vein. The blood sample was collected into a MICROTAINER serum separator tube (Becton-Dickinson, Franklin Lakes N.J.), incubated at room temperature for 30 minutes, centrifuged at 8,000 rpm at 4° C. for 10 min, and cell pellet was resuspended in […] solution (Ambion) and stored at −80° C. The mice were then sacrificed and tissue samples of kidney, liver, brain, lung, and heart were isolated and stored in […] solution (Ambion) at −80° C.
RNA isolation was carried out using the following protocol. […] The RNA was eluted into 80 μL of water and quantitated with RIBOGREEN reagent (Molecular Probes, Eugene Oreg.). […] The absorbance at 260 and 280 nm was measured to determine RNA purity and concentration.
Alternatively, tissue samples were diced and homogenized in TRIZOL reagent (Invitrogen Life Technologies, Carlsbad Calif.) using a rotor-stator POLYTRON homogenizer (Kinematica). […] The absorbance at 260 and 280 nm was measured to determine RNA purity and concentration. […]

Structure (SMILES): O=C(O)c1c[nH]c2c(ccc3cccnc32)c1=O [Compound A, 4-oxo-1,4-dihydro-[1,10]phenanthroline-3-carboxylic acid]
- expression of genes encoding glycolytic enzymes (FIG. 7A) (mouse kidney): increased
- expression of genes encoding angiogenic proteins (FIG. 5A) (mouse lung): increased
